Laboratory results taken from patent US10920265B2, “Compounds and methods for detection of enzymes that remove methyl succinyl groups from epsilon-amino lysine moieties” (Enzo Life Sciences, Inc., priority 2011, dated 2021).
*: point of attachment. AMC = Cc1cc(=O)oc2cc(N*)ccc12

Assays:
Assay in all cases: Sirtuin activity with fluorogenic lysyl substrates
Format in all cases: biochemical
Conditions in all cases: 50 μM substrate, 500 μM NAD^+
[1] = target: T1, SIRT1 (Homo sapiens, UniProt Q96EB6)
T1 construct: purchased ENZO Life Sciences BML-SE239
T1 sequence (Q96EB6 1-747): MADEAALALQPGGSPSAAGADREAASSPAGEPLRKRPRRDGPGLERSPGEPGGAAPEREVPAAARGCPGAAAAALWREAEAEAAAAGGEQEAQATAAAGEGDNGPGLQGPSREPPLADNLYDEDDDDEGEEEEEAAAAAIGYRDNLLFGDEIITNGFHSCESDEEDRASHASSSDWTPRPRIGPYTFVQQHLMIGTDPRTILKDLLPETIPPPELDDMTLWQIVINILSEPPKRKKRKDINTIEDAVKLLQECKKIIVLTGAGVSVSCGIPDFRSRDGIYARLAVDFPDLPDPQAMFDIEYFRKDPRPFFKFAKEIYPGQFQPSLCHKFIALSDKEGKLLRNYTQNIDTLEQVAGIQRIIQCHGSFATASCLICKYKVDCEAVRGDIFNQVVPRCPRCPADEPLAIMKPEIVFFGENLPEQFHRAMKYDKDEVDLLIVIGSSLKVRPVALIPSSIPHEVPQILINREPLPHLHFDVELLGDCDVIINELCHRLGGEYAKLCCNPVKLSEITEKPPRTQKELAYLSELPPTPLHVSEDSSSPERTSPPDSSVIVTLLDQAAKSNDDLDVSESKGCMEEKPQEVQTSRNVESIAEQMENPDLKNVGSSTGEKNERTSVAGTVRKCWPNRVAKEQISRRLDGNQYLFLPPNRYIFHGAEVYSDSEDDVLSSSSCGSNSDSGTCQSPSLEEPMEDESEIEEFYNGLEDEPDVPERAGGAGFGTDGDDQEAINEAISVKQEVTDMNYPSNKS
Description: (§1) The Ac-Lys(Succ.)-AMC substrate was tested for activity with recombinant preparations of human HDACs 1-11, SIRTs 1-4, 6 and 7, a complex of HDAC3 with a fragment of the activating protein NCOR1 and with HeLa nuclear extract, a rich source of active HDACs in their native multiprotein complexes.
(§2) Enzyme and extract catalog products obtained from ENZO Life Sciences included: HDAC1 (Cat. # BML-SE456), HDAC2 (Cat. # BML-SE500), HDAC3 (Cat. # BML-SE507), HDAC3/NCOR1 Complex (Cat. # BML-SE515), HDAC6 (Cat. # BML-SE508), HDAC8 (Cat. # BML-SE145), HDAC10 (Cat. # BML-SE559), HDAC11 (Cat. # BML-SE560), SIRT1 (Cat. # BML-SE239), SIRT2 (Cat. # BML-SE251), SIRT3 (Cat. # BML-SE270), SIRT5 (Cat. # BML-SE555), HeLa Nuclear Extract (Cat. # BML-KI140), Trypsin (“Fluor de Lys Developer”, 80 mg/ml bovine trypsin in 1 mM HCl, Cat. # BML-KI105 or “Fluor de Lys Developer II”, 80 mg/ml bovine trypsin in 1 mM HCl, Cat. # BML-KI176). […] Enzymes obtained from BPS Bioscience, San Diego, Calif. included: human recombinants SIRT4 (Cat. #50015), SIRT6 (Cat. #50017), SIRT7 (Cat. #50018). HeLa whole cell extract was obtained from HeLa S3 cells (American Type Culture Collection) grown in a medium of MEM/10% fetal bovine serum (FBS) as follows: 1) 9×10^6 cells were suspended by trypsinization, followed by a phosphate buffered saline (PBS) rinse and addition of MEM/10% FBS (1.5 mL) to eliminate trypsin before transfer to a 15 mL conical tube; 2) cells were sedimented by a low speed centrifugation, gently resuspended in PBS and sedimented again and supernatant removed; 3) lysis was induced by resuspension in 0.8 mL 50 mM Tris/HCl, pH 8.0 with the non-denaturing detergent NP-40 (0.5%), placement on ice and brief vortexing every 5 min. for 30 min.; 4) 100 μl of a concentrated salt solution in the same buffer was added in order to bring the final buffer composition to 50 mM Tris/C1, pH 8.0, 137 mM NaCl, 2.7 mM KCl, 1 mM MgCl2, 0.5% NP-40; 5) particulate matter was cleared by centrifugation and the cleared lysate supernatant transferred to a 1.5 mL Eppendorf tube and stored on ice until use in activity assays.
(§3) Assays were performed at 37° C., according to the manufacturer's instructions for the “SIRT1 Fluorometric Drug Discovery Kit” from Enzo Life Sciences (ELS) (Cat. # BML-AK555), with exceptions described as follows. Where indicated in figures and text, SIRT1 enzyme was replaced with another enzyme or extract and the “Fluor de Lys-SIRT1 Substrate” (Ac-Arg-His-Lys-Lys(Ac)-AMC; ELS Cat. # BML-KI-177) was replaced with another acetylated, succinylated or trifluoroacetylated substrate.

[2] = target: T2, SIRT3 (Homo sapiens, UniProt Q9NTG7)
T2 construct: purchased ENZO Life Sciences BML-SE270
T2 sequence (Q9NTG7 1-399): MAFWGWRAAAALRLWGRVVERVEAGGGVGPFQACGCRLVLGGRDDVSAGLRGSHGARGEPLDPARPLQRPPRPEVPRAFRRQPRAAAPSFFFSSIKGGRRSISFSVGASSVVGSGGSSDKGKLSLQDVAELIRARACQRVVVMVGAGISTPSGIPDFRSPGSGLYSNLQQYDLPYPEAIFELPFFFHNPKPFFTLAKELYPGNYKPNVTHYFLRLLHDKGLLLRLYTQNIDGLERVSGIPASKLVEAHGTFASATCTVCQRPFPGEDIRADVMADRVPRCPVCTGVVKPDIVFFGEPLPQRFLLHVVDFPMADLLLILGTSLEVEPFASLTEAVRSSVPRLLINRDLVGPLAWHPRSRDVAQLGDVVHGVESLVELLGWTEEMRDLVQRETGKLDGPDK
Description: as §1, §2, §3

[3] = target: T3, SIRT7 (Homo sapiens, UniProt Q9NRC8)
T3 construct: purchased BPS Bioscience 50018
T3 sequence (Q9NRC8 1-400): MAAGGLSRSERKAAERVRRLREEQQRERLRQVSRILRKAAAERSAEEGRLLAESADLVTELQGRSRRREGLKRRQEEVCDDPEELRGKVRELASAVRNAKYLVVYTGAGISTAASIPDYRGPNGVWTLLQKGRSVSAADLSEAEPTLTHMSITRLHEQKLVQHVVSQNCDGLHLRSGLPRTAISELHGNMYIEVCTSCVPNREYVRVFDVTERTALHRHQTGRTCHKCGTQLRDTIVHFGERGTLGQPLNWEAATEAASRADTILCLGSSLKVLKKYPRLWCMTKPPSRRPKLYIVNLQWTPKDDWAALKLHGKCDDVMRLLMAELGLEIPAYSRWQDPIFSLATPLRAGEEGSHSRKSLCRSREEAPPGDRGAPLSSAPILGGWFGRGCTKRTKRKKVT
Description: as §1, §2, §3

Compound	Activity (pmol/min/μg) [1]	Activity [1]	Activity [2]	Activity (pmol/min/μg) [3]	Activity (pmol/min/μg) [2]
Ac-Arg-His-Lys-Lys(ε-acetyl)-AMC (Ac-RHKK(Ac)-{AMC}; SMILES CC(=O)NCCCC[C@H](NC(=O)[C@H](CCCCN)NC(=O)[C@H](Cc1c[nH]cn1)NC(=O)[C@H](CCCNC(=N)N)NC(C)=O)C(=O)Nc1ccc2c(C)cc(=O)oc2c1) [Ac-RHKK(Ac)-AMC, p53 peptide fluorogenic deacetylase substrate, Cat. # BML-KI177, reference compound]	Ac-RHKK(Ac)-AMC/64 pmol/min/μg	–	–	–	–
CC(=O)NCCCCC(NC(C)=O)C(=O)Nc1ccc2c(C)cc(=O)oc2c1 (stereo not shown) [Ac-Lys(Ac.)-AMC, Ac-Lys(ε-acetyl)-AMC, reference compound]	–	0.391 pmol/min/µg	0.125 pmol/min/µg	Undetectable	–
CC(=O)N[C@@H](CCCCNC(=O)CCC(=O)O)C(=O)Nc1ccc2c(C)cc(=O)oc2c1 [Compound 1, N—(N^α-acetyl-L-Lysine(N^ε-succinyl))-AMC]	Undetectable	–	–	Undetectable	Undetectable
COC(=O)CCC(=O)NCCCC[C@H](NC(C)=O)C(=O)Nc1ccc2c(C)cc(=O)oc2c1 [Compound 5, N—(N^α-acetyl-L-Lysine(N^ε-methyl succinyl))-AMC]	–	0.002 pmol/min/µg	0.002 pmol/min/µg	Undetectable	–
CCCCCCCCCCCCCC(=O)NCCCC[C@H](NC(C)=O)C(=O)Nc1ccc2c(C)cc(=O)oc2c1 [Compound 4, N—(N^α-acetyl-L-Lysine(N^ε-myristoyl))-AMC]	–	0.043 pmol/min/µg	0.012 pmol/min/µg	Undetectable	–
